Results published in patent publication US11780830B2, “Triazolone derivatives or salts thereof and pharmaceutical compositions comprising the same” (YUHAN CORPORATION, priority 2018, dated 2023).
Where a name gives a salt, the structure may show the parent alone.

Legend:
Type in all cases: biochemical
[1] = target: T1, recombinant human MAO-A (monoamine oxidase-A) (Homo sapiens, UniProt P21397); test: Activity on recombinant human MAO-A, method similar to the VAP-1 assay; details: substrate 0.5 mM tyramine; read-out: Inhibitory Activity (IC50, nM) MAO-A
T1 construct: purchased Sigma-Aldrich
T1 sequence (P21397 1-527): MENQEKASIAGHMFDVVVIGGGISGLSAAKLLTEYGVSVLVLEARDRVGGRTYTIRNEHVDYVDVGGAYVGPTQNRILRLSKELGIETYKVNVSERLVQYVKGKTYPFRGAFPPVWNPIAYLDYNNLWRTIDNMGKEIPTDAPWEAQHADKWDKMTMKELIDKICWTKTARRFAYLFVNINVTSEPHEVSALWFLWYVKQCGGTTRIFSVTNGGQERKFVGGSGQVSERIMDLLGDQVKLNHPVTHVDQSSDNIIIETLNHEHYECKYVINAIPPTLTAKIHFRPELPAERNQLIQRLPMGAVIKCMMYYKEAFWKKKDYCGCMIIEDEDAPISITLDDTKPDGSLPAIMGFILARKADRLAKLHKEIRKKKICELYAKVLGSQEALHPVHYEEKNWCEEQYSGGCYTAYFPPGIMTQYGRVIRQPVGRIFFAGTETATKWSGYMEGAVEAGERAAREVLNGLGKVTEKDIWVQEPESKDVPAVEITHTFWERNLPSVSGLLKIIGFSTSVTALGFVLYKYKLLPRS
Outline: (§1)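 8-point, 1:3 dose-response, four-parameter logistic IC50 from reduction in fluorescence rate versus DMSO control. HRP/Amplex Red detection of H2O2 (ex 544, em 590 nm) after 30 min, 37 °C compound–enzyme preincubation in pH 7.4 phosphate buffer. MAO-A substrate: 0.5 mM tyramine; MAO-B: 1 mM benzylamine.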

[2] = target: T2, recombinant human VAP-1 (Homo sapiens, UniProt Q16853); test: Activity on recombinant human VAP-1, HRP-coupled Amplex Red hydrogen peroxide assay; details: substrate 1 mM benzylamine; compound incubated with enzyme at 37° C. for 30 minutes; pH 7.4; read-out: Inhibitory Activity (IC50, nM) human VAP-1
T2 construct: purchased R&D systems
T2 sequence (Q16853 1-763): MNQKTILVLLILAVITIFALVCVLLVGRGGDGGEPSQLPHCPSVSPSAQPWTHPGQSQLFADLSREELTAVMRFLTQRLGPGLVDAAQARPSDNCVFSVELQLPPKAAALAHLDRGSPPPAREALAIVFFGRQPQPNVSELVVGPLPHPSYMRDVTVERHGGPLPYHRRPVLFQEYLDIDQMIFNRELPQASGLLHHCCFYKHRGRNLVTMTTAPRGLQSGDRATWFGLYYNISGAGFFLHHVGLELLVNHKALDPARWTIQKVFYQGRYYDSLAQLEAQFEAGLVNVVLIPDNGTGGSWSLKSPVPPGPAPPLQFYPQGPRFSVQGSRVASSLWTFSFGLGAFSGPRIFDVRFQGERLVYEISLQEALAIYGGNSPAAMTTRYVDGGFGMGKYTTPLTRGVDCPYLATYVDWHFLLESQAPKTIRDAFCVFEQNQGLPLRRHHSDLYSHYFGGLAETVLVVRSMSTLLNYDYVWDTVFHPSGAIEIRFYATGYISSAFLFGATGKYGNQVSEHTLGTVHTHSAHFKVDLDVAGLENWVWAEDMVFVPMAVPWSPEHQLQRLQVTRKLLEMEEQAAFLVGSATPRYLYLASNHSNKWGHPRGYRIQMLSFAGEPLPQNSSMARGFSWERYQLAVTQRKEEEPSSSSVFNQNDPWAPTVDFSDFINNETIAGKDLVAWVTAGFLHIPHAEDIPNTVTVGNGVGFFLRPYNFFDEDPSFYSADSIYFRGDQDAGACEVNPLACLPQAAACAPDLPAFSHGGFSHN
Outline: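 Compounds were preincubated with purified enzyme in 50 mM sodium phosphate pH 7.4 at 37 °C for 30 min, then 200 uM Amplex Red, 1 mM benzylamine and 1 U/mL HRP were added. Resorufin fluorescence (ex 544/em 590 nm) was followed over 1-2 h; IC50 came from 4-parameter fits of signal-rate inhibition.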

[3] = target: T3, recombinant human DAO (diamine oxidase) (Homo sapiens, UniProt P19801); test: Activity on recombinant human DAO, method similar to the VAP-1 assay; details: substrate 1 mM putrescine; read-out: Inhibitory Activity (IC50, nM) DAO
T3 construct: purchased R&D systems
T3 sequence (P19801 20-751): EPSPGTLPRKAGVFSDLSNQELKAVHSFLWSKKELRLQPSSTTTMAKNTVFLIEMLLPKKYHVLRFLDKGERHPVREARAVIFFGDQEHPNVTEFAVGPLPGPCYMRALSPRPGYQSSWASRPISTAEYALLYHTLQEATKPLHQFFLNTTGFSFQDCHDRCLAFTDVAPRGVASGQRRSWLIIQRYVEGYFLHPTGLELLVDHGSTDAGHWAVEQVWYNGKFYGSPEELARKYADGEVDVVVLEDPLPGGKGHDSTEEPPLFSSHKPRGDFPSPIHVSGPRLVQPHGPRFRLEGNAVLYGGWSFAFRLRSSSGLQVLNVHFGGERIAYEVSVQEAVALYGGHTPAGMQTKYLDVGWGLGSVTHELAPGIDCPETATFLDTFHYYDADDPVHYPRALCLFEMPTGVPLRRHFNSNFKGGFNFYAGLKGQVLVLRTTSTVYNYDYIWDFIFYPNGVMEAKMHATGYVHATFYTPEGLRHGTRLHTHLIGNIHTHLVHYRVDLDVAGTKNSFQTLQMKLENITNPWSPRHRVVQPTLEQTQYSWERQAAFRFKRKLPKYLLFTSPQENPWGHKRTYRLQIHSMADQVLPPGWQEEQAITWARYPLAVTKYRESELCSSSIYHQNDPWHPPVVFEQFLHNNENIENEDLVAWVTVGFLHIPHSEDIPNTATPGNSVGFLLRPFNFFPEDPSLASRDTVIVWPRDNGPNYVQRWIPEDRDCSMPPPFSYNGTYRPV
Outline: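 Inhibition of recombinant human diamine oxidase (DAO, R&D systems) was assessed by the same approach as the VAP-1 assay, using 1 mM putrescine as substrate. Hydrogen peroxide formed was detected through an HRP-coupled Amplex Red reaction yielding fluorescent resorufin, read at 544 nm excitation and 590 nm emission. IC50 values came from four-parameter logistic fitting in GraphPad Prism.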

[4] = target: T4, recombinant human MAO-B (monoamine oxidase-B) (Homo sapiens, UniProt P27338); test: Activity on recombinant human MAO-B, method similar to the VAP-1 assay; details: substrate 1 mM benzylamine; read-out: Inhibitory Activity (IC50, nM) MAO-B
T4 construct: purchased Sigma-Aldrich
T4 sequence (P27338 1-520): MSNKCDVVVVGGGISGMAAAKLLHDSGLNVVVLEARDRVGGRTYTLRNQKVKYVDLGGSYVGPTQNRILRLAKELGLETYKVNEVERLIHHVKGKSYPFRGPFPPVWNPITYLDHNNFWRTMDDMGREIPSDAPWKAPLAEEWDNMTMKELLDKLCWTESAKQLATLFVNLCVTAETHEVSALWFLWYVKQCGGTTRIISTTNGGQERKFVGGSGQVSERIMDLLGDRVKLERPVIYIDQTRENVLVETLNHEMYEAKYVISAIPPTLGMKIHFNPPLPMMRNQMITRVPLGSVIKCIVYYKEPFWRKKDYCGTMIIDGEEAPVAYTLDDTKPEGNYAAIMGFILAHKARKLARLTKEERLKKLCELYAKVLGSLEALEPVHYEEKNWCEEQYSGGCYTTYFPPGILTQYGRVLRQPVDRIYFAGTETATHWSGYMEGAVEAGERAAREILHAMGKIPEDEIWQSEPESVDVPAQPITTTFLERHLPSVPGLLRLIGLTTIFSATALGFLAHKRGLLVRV
Outline: as §1

Row | SMILES | IC50 [1] [nM] | IC50 [2] [nM] | IC50 [3] [nM] | IC50 [4] [nM]
1 | CN(C)C(=O)c1cccc(-c2ccc(Cn3cnn(C/C(=C/F)CN)c3=O)s2)c1 [Example 182, 3-[5-({1-[(2E)-2-(aminomethyl)-3-fluoroprop-2-en-1-yl]-5-oxo-1,5-dihydro-4H-1,2,4-triazol-4-yl}methyl)thiophen-2-yl]-N,N-dimethylbenzamide] | > 100000 | 3.7 | 3600 | 6600
2 | CC(=O)N1CC=C(c2ccc(Cn3cnn(C/C(=C/F)CN)c3=O)s2)CC1 [Example 59, 4-[[5-(1-acetyl-3,6-dihydro-2H-pyridin-4-yl)-2-thienyl]methyl]-2-[(E)-2-(aminomethyl)-3-fluoro-allyl]-1,2,4-triazol-3-one] | > 100000 | 0.5 | 1300 | 990
3 | CN(C)S(=O)(=O)c1cccc(-c2ccc(Cn3cnn(C/C(=C/F)CN)c3=O)s2)c1 [Example 183, 3-[5-({1-[(2E)-2-(aminomethyl)-3-fluoroprop-2-en-1-yl]-5-oxo-1,5-dihydro-4H-1,2,4-triazol-4-yl}methyl)thiophen-2-yl]-N,N-dimethylbenzenesulfonamide] | > 100000 | 1.2 | 440 | 220
4 | CN(C)c1cc(-c2ccc(Cn3cnn(C/C(=C/F)CN)c3=O)s2)ccc1F [Example 6, 2-[(2E)-2-(aminomethyl)-3-fluoroprop-2-en-1-yl]-4-(5-[3-(dimethylamino)-4-fluorophenyl]thiophen-2-ylmethyl)-2,4-dihydro-3H-1,2,4-triazol-3-one hydrochloride] | > 100000 | 3.4 | 2900 | 70

Results, then the molecule that gave them:

Row | IC50 [1] [nM] | IC50 [2] [nM] | IC50 [3] [nM] | IC50 [4] [nM] | SMILES
5 | 6600 | 5 | 2700 | 730 | NC/C(=C\F)Cn1ncn(Cc2ccc(-c3ccc(N4CCCC4)cc3)s2)c1=O [Example 20, 2-[(2E)-2-(aminomethyl)-3-fluoroprop-2-en-1-yl]-4-(5-[4-(pyrrolidin-1-yl)phenyl]thiophen-2-ylmethyl)-2,4-dihydro-3H-1,2,4-triazol-3-one hydrochloride]
6 | > 100000 | 0.9 | 1200 | 410 | CC(=O)c1ccc(-c2ccc(Cn3cnn(C/C(=C/F)CN)c3=O)s2)cc1 [Example 180, 4-{[5-(4-acetylphenyl)thiophen-2-yl]methyl}-2-[(2E)-2-(aminomethyl)-3-fluoroprop-2-en-1-yl]-2,4-dihydro-3H-1,2,4-triazol-3-one]
7 | 6600 | 2.2 | 83 | 1600 | NC/C(=C\F)Cn1ncn(Cc2ccc(-c3cnc(N4CCOCC4)nc3)s2)c1=O [Example 57, 2-[(2E)-2-(aminomethyl)-3-fluoroprop-2-en-1-yl]-4-(5-[2-(morpholin-4-yl)pyrimidin-5-yl]thiophen-2-ylmethyl)-2,4-dihydro-3H-1,2,4-triazol-3-one hydrochloride]
